US7625875B2 (priority 2002, dated 2009)
Where two headings read alike, the source gives them in different places.

Experiments:
HepG2 cells [1] = assay: Mitochondrial DNA content; format: cell-based, human
Description: To assess the potential of mCyd to produce mitochondrial toxicity, several in vitro studies were conducted using the human hepatoma cell lines HepG2 or Huh7.
The significance of this finding is unclear, particularly since mCyd is unlikely to attain a plasma concentration of 50 μM in the clinic. For comparison, lactic acid production increases by 100% over control cells in cells treated with 10 μM FIAU (Cui L, Yoon, et al. J. Clin. Invest. 1995; 95:555-563).

Sb-1 = assay: organism not typed; format: cell-based, Sabin type 1 poliomyelitis virus
Influenza A/H1N1 = assay: Antiviral activity, Influenza A/H1N1 (MDCK); format: cell-based; conditions: Influenza A virus
in vitro [2] = conditions: African green monkey
in vitro [3] = conditions: hamster
Huh7 cells = assay: Mitochondria toxicity assay, lactic acid production, Huh7; conditions: 4 days
HepG2 cells [4] = assay: Mitochondria toxicity assay, lactic acid production, HepG2; conditions: for L-Lactate (% of Control): 4 days

CC1(O)C(O)C(CO)OC1n1ccc(N)nc1=O (centres unmarked) [mCyd, 4-Amino-1-(3,4-dihydroxy-5-hydroxymethyl-3-methyl-tetrahydro-furan-2-yl)-1H-pyrimidine-2-one]
mtDNA/nuclear DNA (% of Control) (HepG2 cells [1]; 10 μM, 6 day treatment): 117.3 ± 17.5 % of Control
mtDNA/nuclear DNA (% of Control) (HepG2 cells [1]; 10 μM, 14 day treatment): 99.7 ± 23.9 % of Control
mtDNA/nuclear DNA (% of Control) (HepG2 cells [1]; 50 μM, 6 day treatment): 158.2 ± 17.5 % of Control
mtDNA/nuclear DNA (% of Control) (HepG2 cells [1]; 50 μM, 14 day treatment): 83.0 ± 15.5 % of Control
EC50 (Sb-1; read-out: EC50 Sb-1): 6 µM
EC50 (Sb-1; read-out: Sb-1): 11.5 µM
EC50 (Influenza A/H1N1): > 200 µM
CC50 (in vitro [2]): > 100 µM
CC50 (in vitro [3]): > 100 µM
L-Lactate (% of Control) (Huh7 cells; 10 μM): 98.0 ± 12.3 % of Control
L-Lactate (% of Control) (Huh7 cells; 50 μM): 97.1 ± 10.1 % of Control
L-Lactate (% of Control) (HepG2 cells [4]; 10 μM): 98.6 ± 7.3 % of Control
increase in lactic acid production (HepG2 cells [4]; 50 μM): 38%
L-Lactate (% of Control) (HepG2 cells [4]; 50 μM): 138.0 ± 8.9 % of Control
